Assay results published in US20220257491A1, “Prebiotic Oral Care Compositions and Methods” (Colgate-Palmolive Company, priority 2021, published 2022).
Marks after values point to notes of the source that are not given here.

How the values were obtained:
P. gingivalis = assay: Multi-species biofilm composition: absolute abundance of P. gingivalis; format: cell-based; conditions: for Absolute abundance Pg (P. gingivalis): mean±SD n=3
Procedure: (§1) Biofilms are grown vertically on Calcium Deficient Hydroxyapatite (CAD-HA) disks (Hitemco Medical, Old Bethpage, USA) using the Amsterdam Active Adhesion model. Biofilms are allowed to establish during 24 h (37° C., 170 rpm) under micro-aerophilic conditions (6% O2, 7% CO2, 7% H2, 80% N2). After this 24 h, disks are rinsed 3 times a day for 3 minutes (RT, 250 rpm), for 3 consecutive days, by transferring the lid containing the disks to a new 24-well plate containing 2 mL/well of the appropriate substrate solution. As a negative control, PBS (pH 5.7) without substrate supplementation is used. After each rinsing step, disks are shortly dip-rinsed in a new 24-well plate containing fresh modified BHI medium (2 mL/well) to remove remaining substrate traces. Subsequently, the lid is transferred to another 24-well plate containing fresh modified BHI medium (2 mL/well), followed by incubation (micro-aerophilic, 37° C., 170 rpm) until the next rinsing step.
NADM, N-acetyl-D-glucosamine (“NADG”) and D-(+)-mannose are selected to determine their effects on multi-species biofilm composition. […] decrease in absolute numbers in at least four of the pathogenic bacterial species tested in the assay, compared to the control, the results of which are described in Table 1 below. Absolute abundances of bacterial species are shown as mean±SD (n=3) logarithmic values of the genome equivalents per millilitre (log(Geq/mL)).

[1] = system: A. actinomycetemcomitans virulence genes; assay: Multi-species biofilm virulence gene expression, SYBR RT-qPCR: A. actinomycetemcomitans; format: cell-based; conditions: for Fold Change in virulence gene expression: aae / Fold Change in virulence gene expression: apaH / Fold Change in virulence gene expression: cdtB / Fold Change in virulence gene expression: emaA / Fold Change in virulence gene expression: flp / Fold Change in virulence gene expression: ltxA / Fold Change in virulence gene expression: omp29 / Fold Change in virulence gene expression: omp100 / Fold Change in virulence gene expression: orf859 / Fold Change in virulence gene expression: pgA / Fold Change in virulence gene expression: vapA / Fold Change in virulence gene expression: vppA: relative to control (=1), 2^-ΔΔCt, geometric mean n=3
Procedure: as §1
The expression of 33 virulence genes from 4 periodontal pathogens is analysed to evaluate the relative virulence of the substrate-treated biofilms. For all three substrates, virulence gene expression is determined relatively to the control, and these values are also compared between substrates when this is relevant (Tables 5a-5d).

SMILES | Absolute abundance Pg (P. gingivalis) (P. gingivalis; substrate 1%(w/v) in PBS) | Absolute abundance Pg (P. gingivalis) (P. gingivalis; substrate 1 M in PBS) | Fold Change in virulence gene expression: aae ([1]; substrate 1% (w/v)) | Fold Change in virulence gene expression: apaH ([1]; substrate 1% (w/v)) | Fold Change in virulence gene expression: cdtB ([1]; substrate 1% (w/v)) | Fold Change in virulence gene expression: emaA ([1]; substrate 1% (w/v)) | Fold Change in virulence gene expression: flp ([1]; substrate 1% (w/v)) | Fold Change in virulence gene expression: ltxA ([1]; substrate 1% (w/v)) | Fold Change in virulence gene expression: omp29 ([1]; substrate 1% (w/v)) | Fold Change in virulence gene expression: omp100 ([1]; substrate 1% (w/v)) | Fold Change in virulence gene expression: orf859 ([1]; substrate 1% (w/v)) | Fold Change in virulence gene expression: pgA ([1]; substrate 1% (w/v)) | Fold Change in virulence gene expression: vapA ([1]; substrate 1% (w/v)) | Fold Change in virulence gene expression: vppA ([1]; substrate 1% (w/v)) | Fold Change in virulence gene expression: aae ([1]; substrate 1M) | Fold Change in virulence gene expression: apaH ([1]; substrate 1M) | Fold Change in virulence gene expression: cdtB ([1]; substrate 1M) | Fold Change in virulence gene expression: emaA ([1]; substrate 1M) | Fold Change in virulence gene expression: flp ([1]; substrate 1M) | Fold Change in virulence gene expression: ltxA ([1]; substrate 1M) | further results
CC(=O)N[C@@H]1C(O)O[C@H](CO)[C@@H](O)[C@@H]1O (stereo partly drawn) [NADM, N-acetyl-D-mannosamine] | 7.06 ± 0.30 log(Geq/mL) | 5.42 ± 0.23 log(Geq/mL) | 0.92 fold | 0.81 fold | 0.59 fold | 0.40 fold | 0.35 fold | 0.29 fold | 0.76 fold | 0.42 fold | 0.57 fold | 1.07 fold | 0.82 fold | 1.01 fold | 0.27 fold | 0.25 fold | 0.31 fold | 0.36 fold | 0.85 fold | 0.01 fold | A. actinomycetemcomitans gene expression decrease: flp, emaA and omp100 ([1]; substrate 1%(w/v)): 2.4- to 2.9 fold; Fold Change in virulence gene expression: omp29 ([1]; substrate 1M): 0.48 fold; Fold Change in virulence gene expression: omp100 ([1]; substrate 1M): 0.04 fold; Fold Change in virulence gene expression: orf859 ([1]; substrate 1M): 0.11 fold; Fold Change in virulence gene expression: pgA ([1]; substrate 1M): 3.53 fold; Fold Change in virulence gene expression: vapA ([1]; substrate 1M): 0.74 fold; Fold Change in virulence gene expression: vppA ([1]; substrate 1M): 0.81 fold
O=C[C@@H](O)[C@@H](O)[C@H](O)[C@H](O)CO [D-mannose, D-(+)-mannose] | 7.08 ± 0.17 log(Geq/mL) | 2.75 ± 0.08*^, #2 log(Geq/mL) | 1.06 fold | 0.72 fold | 0.36 fold | 0.41 fold | 1.26 fold | 0.17 fold | 0.65 fold | 0.34 fold | 1.46 fold | 0.55 fold | 0.39 fold | 0.53 fold | 0.16 fold | 0.12 fold | 0.13 fold | 0.12 fold | 1.57 fold | 0.02 fold | Difference in P. gingivalis amounts compared to NADG (P. gingivalis; substrate 1 M): −1.25 log(Geq/mL); A. actinomycetemcomitans gene expression decrease: cdtB, emaA, ltxA, omp100 and vapA ([1]; substrate 1%(w/v)): 2.4- to 5.9 fold; Fold Change in virulence gene expression: omp29 ([1]; substrate 1M): 0.27 fold; Fold Change in virulence gene expression: omp100 ([1]; substrate 1M): 0.26 fold; Fold Change in virulence gene expression: orf859 ([1]; substrate 1M): 0.03 fold; Fold Change in virulence gene expression: pgA ([1]; substrate 1M): 5.70 fold; Fold Change in virulence gene expression: vapA ([1]; substrate 1M): 0.62 fold; Fold Change in virulence gene expression: vppA ([1]; substrate 1M): 0.58 fold
CC(=O)N[C@H]1C(O)O[C@H](CO)[C@@H](O)[C@@H]1O (stereo partly drawn) [NADG, N-acetyl-D-glucosamine, reference compound] | 7.14 ± 0.28 log(Geq/mL) | 4.00 ± 0.39*^, ^#3 log(Geq/mL) | 1.55 fold | 0.73 fold | 1.05 fold | 0.68 fold | 0.54 fold | 0.40 fold | 0.77 fold | 0.71 fold | 1.99 fold | 0.72 fold | 0.65 fold | 0.28 fold | 0.24 fold | 0.08 fold | 0.04 fold | 0.29 fold | 2.40 fold | 0.01 fold | A. actinomycetemcomitans gene expression decrease: vppA ([1]; substrate 1%(w/v)): 3.6 fold; A. actinomycetemcomitans gene expression increase: aae ([1]; substrate 1%(w/v)): 1.5 fold; A. actinomycetemcomitans gene expression increase: orf859 ([1]; substrate 1%(w/v)): 2 fold; Upregulation of A. actinomycetemcomitans expression of flp ([1]; substrate 1 M): 2.4 fold; Fold Change in virulence gene expression: omp29 ([1]; substrate 1M): 0.19 fold; Fold Change in virulence gene expression: omp100 ([1]; substrate 1M): 0.03 fold; Fold Change in virulence gene expression: orf859 ([1]; substrate 1M): 0.13 fold; Fold Change in virulence gene expression: pgA ([1]; substrate 1M): 11.60 fold; Fold Change in virulence gene expression: vapA ([1]; substrate 1M): 1.00 fold; Fold Change in virulence gene expression: vppA ([1]; substrate 1M): 0.49 fold
